From the supplement of paper PMC10307832

How the values were obtained:
Assay in all cases: relative viability (nuclei count vs DMSO), 5 days (fraction); higher = more cells survive
[1] = system: ABC-1
In short: (§1)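 After 5 days of treatment, lung cancer cells in 1536-well plates were fixed and stained in a single step (final 0.05% Triton X-100, 1% formaldehyde, 1 ug/ml Hoechst) and their nuclei counted on 4× images. Treatment had been applied by pin tool the day after seeding as one drug alone or as a fixed anchor-drug dose with five library-drug doses (not always all listed) in √10 steps. Relative viability is the nuclei count of treated wells divided by that of vehicle wells, and values are medians of duplicate plates.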

[2] = system: COR-L23
In short: as §1

[3] = system: ChaGo-K-1
In short: as §1

[4] = system: EMC-BAC-2
In short: as §1

[5] = system: HARA
In short: as §1

[6] = system: HCC-15
In short: as §1

[7] = system: HCC-366
In short: as §1

[8] = system: HCC-78
In short: as §1

[9] = system: HOP-62
In short: as §1

[10] = system: LC-2-ad
In short: as §1

[11] = system: NCI-H1944
In short: as §1

[12] = system: NCI-H1993
In short: as §1

[13] = system: NCI-H2023
In short: as §1

[14] = system: NCI-H2126
In short: as §1

[15] = system: NCI-H2228
In short: as §1

[16] = system: NCI-H23
In short: as §1

[17] = system: NCI-H2405
In short: as §1

[18] = system: NCI-H358
In short: as §1

[19] = system: NCI-H838
In short: as §1

[20] = system: SK-LU-1
In short: as §1

O=c1cc(N2CCOCC2)oc2c(-c3cccc4c3sc3ccccc34)cccc12 + C[C@@H](Oc1cc(-c2cnn(C3CCNCC3)c2)cnc1N)c1c(Cl)ccc(F)c1Cl [Crizotinib] (partner 1 µM)
relative viability ([1]; first compound 0.01 µM): 1.26
relative viability ([1]; first compound 0.03162 µM): 0.654
relative viability ([1]; first compound 0.1 µM): 0.983
relative viability ([1]; first compound 0.3162 µM): 1.06
relative viability ([1]; first compound 1 µM): 1.11
relative viability ([2]; first compound 0.01 µM): 0.62
relative viability ([2]; first compound 0.03162 µM): 0.732
relative viability ([2]; first compound 0.1 µM): 0.819
relative viability ([2]; first compound 0.3162 µM): 0.638
relative viability ([2]; first compound 1 µM): 0.597
relative viability ([3]; first compound 0.01 µM): 1.17
relative viability ([3]; first compound 0.03162 µM): 1.16
relative viability ([3]; first compound 0.1 µM): 1.23
relative viability ([3]; first compound 0.3162 µM): 1.08
relative viability ([3]; first compound 1 µM): 1.08
relative viability ([4]; first compound 0.01 µM): 0.787
relative viability ([4]; first compound 0.03162 µM): 0.788
relative viability ([4]; first compound 0.1 µM): 0.847
relative viability ([4]; first compound 0.3162 µM): 0.77
relative viability ([4]; first compound 1 µM): 0.735
relative viability ([5]; first compound 0.01 µM): 0.996
relative viability ([5]; first compound 0.03162 µM): 1.05
relative viability ([5]; first compound 0.1 µM): 1.26
relative viability ([5]; first compound 0.3162 µM): 1.13
relative viability ([5]; first compound 1 µM): 0.988
relative viability ([6]; first compound 0.01 µM): 0.807
relative viability ([6]; first compound 0.03162 µM): 0.846
relative viability ([6]; first compound 0.1 µM): 0.879
relative viability ([6]; first compound 0.3162 µM): 0.773
relative viability ([6]; first compound 1 µM): 0.764
relative viability ([7]; first compound 0.01 µM): 0.457
relative viability ([7]; first compound 0.03162 µM): 0.506
relative viability ([7]; first compound 0.1 µM): 0.66
relative viability ([7]; first compound 0.3162 µM): 0.471
relative viability ([7]; first compound 1 µM): 0.598
relative viability ([8]; first compound 0.01 µM): 0.342
relative viability ([8]; first compound 0.03162 µM): 0.33
relative viability ([8]; first compound 0.1 µM): 0.331
relative viability ([8]; first compound 0.3162 µM): 0.326
relative viability ([8]; first compound 1 µM): 0.353
relative viability ([9]; first compound 0.01 µM): 1.06
relative viability ([9]; first compound 0.03162 µM): 0.931
relative viability ([9]; first compound 0.1 µM): 0.931
relative viability ([9]; first compound 0.3162 µM): 0.945
relative viability ([9]; first compound 1 µM): 1.04
relative viability ([10]; first compound 0.01 µM): 0.492
relative viability ([10]; first compound 0.03162 µM): 0.427
relative viability ([10]; first compound 0.1 µM): 0.487
relative viability ([10]; first compound 0.3162 µM): 0.397
relative viability ([10]; first compound 1 µM): 0.537
relative viability ([11]; first compound 0.01 µM): 1.05
relative viability ([11]; first compound 0.03162 µM): 1.03
relative viability ([11]; first compound 0.1 µM): 1.18
relative viability ([11]; first compound 0.3162 µM): 1.03
relative viability ([11]; first compound 1 µM): 1.04
relative viability ([12]; first compound 0.01 µM): 0.858
relative viability ([12]; first compound 0.03162 µM): 0.93
relative viability ([12]; first compound 0.1 µM): 0.928
relative viability ([12]; first compound 0.3162 µM): 0.862
relative viability ([12]; first compound 1 µM): 0.943
relative viability ([13]; first compound 0.01 µM): 0.574
relative viability ([13]; first compound 0.03162 µM): 0.589
relative viability ([13]; first compound 0.1 µM): 0.663
relative viability ([13]; first compound 0.3162 µM): 0.616
relative viability ([13]; first compound 1 µM): 0.586
relative viability ([14]; first compound 0.01 µM): 1.04
relative viability ([14]; first compound 0.03162 µM): 1.01
relative viability ([14]; first compound 0.1 µM): 1.01
relative viability ([14]; first compound 0.3162 µM): 0.944
relative viability ([14]; first compound 1 µM): 0.955
relative viability ([15]; first compound 0.03162 µM): 0.479
relative viability ([15]; first compound 0.1 µM): 0.501
relative viability ([15]; first compound 0.3162 µM): 0.403
relative viability ([15]; first compound 1 µM): 0.471
relative viability ([16]; first compound 0.01 µM): 0.59
relative viability ([16]; first compound 0.03162 µM): 0.586
relative viability ([16]; first compound 0.3162 µM): 0.508
relative viability ([16]; first compound 1 µM): 0.506
relative viability ([17]; first compound 0.01 µM): 0.814
relative viability ([17]; first compound 0.03162 µM): 0.856
relative viability ([17]; first compound 0.1 µM): 0.915
relative viability ([17]; first compound 0.3162 µM): 0.849
relative viability ([17]; first compound 1 µM): 0.84
relative viability ([18]; first compound 0.01 µM): 0.498
relative viability ([18]; first compound 0.03162 µM): 0.546
relative viability ([18]; first compound 0.1 µM): 0.794
relative viability ([18]; first compound 0.3162 µM): 0.658
relative viability ([18]; first compound 1 µM): 0.535
relative viability ([19]; first compound 0.01 µM): 0.876
relative viability ([19]; first compound 0.03162 µM): 0.77
relative viability ([19]; first compound 0.1 µM): 0.849
relative viability ([19]; first compound 0.3162 µM): 0.744
relative viability ([19]; first compound 1 µM): 0.787
relative viability ([20]; first compound 0.03162 µM): 0.897
relative viability ([20]; first compound 0.1 µM): 0.828
relative viability ([20]; first compound 0.3162 µM): 0.993
relative viability ([20]; first compound 1 µM): 0.877

COc1nc(C)cnc1NS(=O)(=O)c1cccnc1-c1ccc(-c2nnco2)cc1 [Zibotentan] + C[C@@H](Oc1cc(-c2cnn(C3CCNCC3)c2)cnc1N)c1c(Cl)ccc(F)c1Cl [Crizotinib] (partner 1 µM)
relative viability ([1]; first compound 0.08 µM): 1.45
relative viability ([1]; first compound 0.253 µM): 0.847
relative viability ([1]; first compound 0.8 µM): 1.07
relative viability ([1]; first compound 2.53 µM): 0.987
relative viability ([2]; first compound 0.08 µM): 0.838
relative viability ([2]; first compound 0.253 µM): 0.65
relative viability ([2]; first compound 0.8 µM): 0.68
relative viability ([2]; first compound 2.53 µM): 0.758
relative viability ([3]; first compound 0.08 µM): 1.33
relative viability ([3]; first compound 0.8 µM): 1.09
relative viability ([3]; first compound 2.53 µM): 1.21
relative viability ([4]; first compound 0.08 µM): 0.843
relative viability ([4]; first compound 0.253 µM): 0.751
relative viability ([4]; first compound 0.8 µM): 0.778
relative viability ([4]; first compound 2.53 µM): 0.754
relative viability ([5]; first compound 0.08 µM): 1.03
relative viability ([5]; first compound 0.253 µM): 0.993
relative viability ([5]; first compound 0.8 µM): 1.02
relative viability ([5]; first compound 2.53 µM): 1.18
relative viability ([6]; first compound 0.08 µM): 0.918
relative viability ([6]; first compound 0.253 µM): 0.748
relative viability ([6]; first compound 0.8 µM): 0.843
relative viability ([6]; first compound 2.53 µM): 0.885
relative viability ([7]; first compound 0.08 µM): 0.774
relative viability ([7]; first compound 0.253 µM): 0.572
relative viability ([7]; first compound 0.8 µM): 0.475
relative viability ([7]; first compound 2.53 µM): 0.499
relative viability ([8]; first compound 0.08 µM): 0.336
relative viability ([8]; first compound 0.253 µM): 0.311
relative viability ([8]; first compound 0.8 µM): 0.324
relative viability ([8]; first compound 2.53 µM): 0.343
relative viability ([9]; first compound 0.08 µM): 0.854
relative viability ([9]; first compound 0.253 µM): 0.862
relative viability ([9]; first compound 0.8 µM): 1.02
relative viability ([9]; first compound 2.53 µM): 1.06
relative viability ([10]; first compound 0.08 µM): 0.511
relative viability ([10]; first compound 0.253 µM): 0.448
relative viability ([10]; first compound 0.8 µM): 0.493
relative viability ([10]; first compound 2.53 µM): 0.469
relative viability ([11]; first compound 0.08 µM): 1.26
relative viability ([11]; first compound 0.253 µM): 1.08
relative viability ([11]; first compound 0.8 µM): 1.06
relative viability ([11]; first compound 2.53 µM): 1.06
relative viability ([12]; first compound 0.253 µM): 0.915
relative viability ([12]; first compound 0.8 µM): 0.73
relative viability ([12]; first compound 2.53 µM): 1.04
relative viability ([13]; first compound 0.08 µM): 0.605
relative viability ([13]; first compound 0.253 µM): 0.475
relative viability ([13]; first compound 0.8 µM): 0.72
relative viability ([13]; first compound 2.53 µM): 0.631
relative viability ([14]; first compound 0.08 µM): 1.01
relative viability ([14]; first compound 0.253 µM): 0.94
relative viability ([14]; first compound 0.8 µM): 0.992
relative viability ([14]; first compound 2.53 µM): 1.05
relative viability ([15]; first compound 0.08 µM): 0.548
relative viability ([15]; first compound 0.253 µM): 0.369
relative viability ([15]; first compound 0.8 µM): 0.451
relative viability ([15]; first compound 2.53 µM): 0.441
relative viability ([16]; first compound 0.08 µM): 0.54
relative viability ([16]; first compound 0.253 µM): 0.552
relative viability ([16]; first compound 0.8 µM): 0.565
relative viability ([16]; first compound 2.53 µM): 0.593
relative viability ([17]; first compound 0.08 µM): 0.907
relative viability ([17]; first compound 0.253 µM): 0.882
relative viability ([17]; first compound 0.8 µM): 0.789
relative viability ([17]; first compound 2.53 µM): 0.881
relative viability ([18]; first compound 0.08 µM): 0.581
relative viability ([18]; first compound 0.8 µM): 0.665
relative viability ([18]; first compound 2.53 µM): 0.617
relative viability ([19]; first compound 0.08 µM): 0.918
relative viability ([19]; first compound 0.253 µM): 0.826
relative viability ([19]; first compound 0.8 µM): 0.82
relative viability ([19]; first compound 2.53 µM): 0.848
relative viability ([20]; first compound 0.08 µM): 0.879
relative viability ([20]; first compound 0.253 µM): 0.841
relative viability ([20]; first compound 0.8 µM): 0.928
relative viability ([20]; first compound 2.53 µM): 1.05
